Earlier results in article PMC12125103 (Naunyn-Schmiedeberg's Archives of Pharmacology, 2024).

Substance: etelcalcetide [Parsabiv]
- maximum single dose in healthy humans for safe tolerance: 10 mg
